“Also recorded” adds a separate entry of the source.

We go through five molecules from patent publication US10350189B2, “Method for transnasal delivery of blood-brain barrier permeation agent and therapeutic agent” (priority 2015, dated 2019).

The conditions of data set [1]: cited from earlier work.
Data set [2] deals with Male Sprague-Dawley rats. In words: Mean arterial pressure after intranasal application to the SPG. Type of data set: in vivo, rat. As to the method: (§1) Male Sprague-Dawley rats (Harlan, Indianapolis, Ind.) weighing 300-350 g were allowed to acclimate for at least 4 days prior to experimentation. Rats were housed 2 per cage in a room with controlled light (6:00 a.m. to 6:00 p.m.), humidity (50±10%) and temperature (23±1° C.). Animal care and use for experimental procedures was approved by and in accordance with the guidelines of the Midwestern University Institutional Animal Care and Use Committee (IACUC).
(§2) All drugs/solutions were freshly prepared on the day of administration using sterile saline (0.9% NaCl, Hospira, Inc., Lake Forest, Ill.). Urethane (ethyl carbamate, Sigma-Aldrich, St. Louis, Mo.) was administered intraperitoneally (IP) at a dose of 1.5 g/kg. […] Evans blue (5 mL/kg) was administered intravenously (IV) via left femoral vein cannula.
(§3) Two studies were designed for this project, using a total of 42 rats.
(§4) Rats were anesthetized with urethane (1.5 g/kg, IP) and immobilized on a surgical board equipped with a controlled heating pad. Core temperature, measured via rectal probe, was maintained at 37±1° C. In order to maintain blood pO2, pCO2 and pH, and to avoid the effect of respiration on blood pressure (BP) and heart rate (HR), animals were kept on artificial respiration via an endotracheal cannula connected to a rodent ventilator (Model 683, Harvard Apparatus, Inc., Holliston, Mass.). […]

In data set [3] the test system is Male Sprague-Dawley rats. In words: Heart rate after intranasal application to the SPG. Type of data set: in vivo, rat. On the procedure:
as §1, §2, §3, §4

Data set [4] deals with BBB of the rat test subjects. In words: BBB permeability by Evans Blue concentration in brain after intranasal topical application to the SPG. Type of data set: in vivo. An excerpt:
Data are presented as mean±SEM. […] A P value of less than 0.05 was considered significant.

Data set [5] concerns Male Sprague-Dawley rats. The experiment in a line: Cerebral blood flow by Laser Speckle Contrast Analysis after intranasal application to the SPG. As to conditions: rivastigmine-treated (1 and 2 mg/kg) vs saline. Type of data set: in vivo, rat. On the procedure: as §3
Animals anesthetized with urethane were secured into a stereotactic apparatus (David Kopf Instruments, Tujunga, Calif.) and a midline incision was made on their scalp. The skull was slowly thinned using a dremel, working in 30 second periods to minimize heat caused by friction. Cerebral blood flow was measured using Laser Speckle Contrast Analysis (LASCA) technology with a PeriCam PSI HR system (Perimed, Inc., Ardmore, Pa.), captured in real time and analyzed using PIMSoft software (Perimed).
GraphPad Instat 2.00 was used to conduct a power analysis. […] Data are presented as mean±SEM. The significance of differences for mean arterial pressure, heart rate and cerebral blood flow was estimated by 2-way analysis of variance followed by Tukey's post hoc test. One-way analysis of variance followed by Tukey's post hoc test was used to estimate significance for BBB permeability. A P value of less than 0.05 was considered significant. The statistical analysis was processed with GraphPad Prism 6.05 (GraphPad, San Diego, Calif.).

Where [6] appears, read: 1, 2 or 4 mg/kg to the SPG via intranasal cannula.

As to `COc1ccc2c3c1O[C@H]1C[C@@H](O)C=C[C@@]31CCN(C)C2` [galantamine], the solubility in water entry in data set [1] is recorded as “about 10 mg/mL”.

As for `C/C=C1\[C@H]2C=C(C)C[C@]1(N)c1ccc(=O)[nH]c1C2` [huperzine], the solubility in water result in data set [1] is “about 0.188 mg/mL”.

Regarding `CN(C)C(=O)Oc1cccc([N+](C)(C)C)c1` [neostigmine], the mean arterial pressure result with Male Sprague-Dawley rats [2] (0.4 mg/kg, at 15 and 30 min postadministration) is given as “slight decrease in mean arterial pressure”. In addition, in the data set with Male Sprague-Dawley rats [3] (0.4 mg/kg, over time), the heart rate result is recorded as “slight decrease in heart rate”.

With `CNC(=O)Oc1ccc2c(c1)[C@]1(C)CCN(C)[C@@H]1N2C` [physostigmine], the solubility in water result in data set [1] is on record as “about 7.76 mg/mL”.

On to `CCN(C)C(=O)Oc1cccc([C@H](C)N(C)C)c1` [rivastigmine], for which the “BBB permeability, in words” value in data set [4] (1 mg/kg compared with saline, 2 and 4 mg/kg) is “significantly higher than saline; also recorded: greatest permeabilization”; in data set [4] (Study I, 2 mg/kg rivastigmine compared with 0.4 mg/kg neostigmine), “slightly increased permeability of the BBB over neostigmine”. Also, the “BBB permeability, in words (Evans Blue dye in the CNS)” value in data set [4] (topical administration to the SPG, overall conclusion) was “increase in BBB permeability”. Moreover, in the data set with Male Sprague-Dawley rats [2] (setting [6]), the mean arterial pressure result is “did not significantly alter”. For the same molecule, the heart rate result with Male Sprague-Dawley rats [3] (setting [6]) is “did not significantly vary”. For the same molecule, the cerebral blood flow result with Male Sprague-Dawley rats [5] is reported as “No significant differences”. Also, the solubility in water entry in data set [1] is “about 2.04 mg/mL”.
